From patent US20200216439A1, “HETERO-1,5,6,7-TETRAHYDRO-4H-INDOL-4-ONES” (BAYER PHARMA AKTIENGESELLSCHAFT, priority 2015, published 2020)

biological target: T1, catalytic domain of human Bub1 (amino acids 704-1085) (Homo sapiens, UniProt O43683); assay: Bub1 kinase assay (TR-FRET); type: biochemical; settings: TR-FRET; ATP 10 μM, peptide substrate 1 μM; 60 min at 22° C.; average or median if tested more than once; read-out: Inhibition of Bub1 kinase IC50
T1 construct: catalytic domain of human Bub1 (amino acids 704-1085); His6 (N); made in house; host or cells: Hi5 insect cells
T1 sequence (O43683 704-1085): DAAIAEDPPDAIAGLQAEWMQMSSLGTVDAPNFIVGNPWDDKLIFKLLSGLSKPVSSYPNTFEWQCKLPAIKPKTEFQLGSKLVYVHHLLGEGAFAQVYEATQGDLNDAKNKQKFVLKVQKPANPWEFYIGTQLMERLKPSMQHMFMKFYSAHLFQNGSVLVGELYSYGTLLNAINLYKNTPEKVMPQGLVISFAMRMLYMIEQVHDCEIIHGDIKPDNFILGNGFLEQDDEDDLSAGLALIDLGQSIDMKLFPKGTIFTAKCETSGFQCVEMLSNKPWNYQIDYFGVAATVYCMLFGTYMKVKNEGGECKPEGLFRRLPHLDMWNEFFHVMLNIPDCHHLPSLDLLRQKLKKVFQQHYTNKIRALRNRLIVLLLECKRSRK
Summary of the method: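 Human Bub1 catalytic domain (704-1085, His6-tagged, Hi5-expressed, ~200 ng/mL) preincubated with compound 15 min at 22 °C, then reacted 60 min at 22 °C with 10 μM ATP and 1 μM biotinylated peptide substrate, pH 7.5. EDTA stop; TR-FRET 665/620 ratio; IC50 from 4-parameter fit, 11 concentrations in duplicate.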

Row | Compound | IC50
1 | COc1ccc(C(=O)Nc2cc(-c3c(Nc4ccccc4)c4c(n3C)CN(C(C)=O)CC4=O)ccn2)cc1F [Example 288, N-4-[6-Acetyl-1-methyl-4-oxo-3-(phenylamino)-4,5,6,7-tetrahydro-1H-pyrrolo[2,3-c]pyridin-2-yl]pyridin-2-yl-3-fluoro-4-methoxybenzamide] | 404 nM
2 | COc1cnccc1-c1[nH]c2c(c1Nc1ccccc1)C(=O)CNC2 [Example 103, 2-(3-Methoxypyridin-4-yl)-3-(phenylamino)-1,5,6,7-tetrahydro-4H-pyrrolo[2,3-c]pyridin-4-one] | 138 nM
3 | CN1CCN(C(=O)N2CC(=O)c3c([nH]c(-c4ccnc(NC(=O)[C@@H]5C[C@@H]5F)c4)c3Nc3ccccc3)C2)CC1 [Example 209, (1S,2S)-2-Fluoro-N-(4-6-[(4-methylpiperazin-1-yl)carbonyl]4-oxo-3-(phenylamino)-4,5,6,7-tetrahydro-1H-pyrrolo[2,3-c]pyridin-2-ylpyridin-2-yl)cyclopropanecarboxamide] | 7 nM
4 | O=C1CN(C(=O)c2ccncc2)Cc2[nH]c(-c3ccnc(NC(=O)[C@@H]4C[C@@H]4F)c3)c(Nc3ccccc3)c21 [Example 200, (1S,2S)-2-Fluoro-N-4-[4-oxo-3-(phenylamino)-6-(pyridin-4-ylcarbonyl)-4,5,6,7-tetrahydro-1H-pyrrolo[2,3-c]pyridin-2-yl]pyridin-2-ylcyclopropanecarboxamide] | 7 nM
5 | CC(C)(C)OC(=O)N1CC(=O)c2c([nH]c(-c3ccnc(NC(=O)C(C)(C)F)c3)c2Nc2ccccc2)C1 [Example 119, tert-Butyl 2-{2-[(2-fluoro-2-methylpropanoyl)amino]pyridin-4-yl}-4-oxo-3-(phenylamino)-1,4,5,7-tetrahydro-6H-pyrrolo[2,3-c]pyridine-6-carboxylate] | 42 nM
6 | COc1cnccc1-c1[nH]c2c(c1Nc1ccccc1)C(=O)COC2 [Example 43, 2-(3-Methoxypyridin-4-yl)-3-(phenylamino)-1,7-dihydropyrano[3,4-b]pyrrol-4(5H)-one] | 84 nM
7 | CN(C)C(=O)N1CC(=O)c2c([nH]c(-c3ccncc3OCC(F)(F)F)c2Nc2ccccc2)C1 [Example 244, N,N-Dimethyl-4-oxo-3-(phenylamino)-2-[3-(2,2,2-trifluoroethoxy)pyridin-4-yl]-1,4,5,7-tetrahydro-6H-pyrrolo[2,3-c]pyridine-6-carboxamide] | 18 nM
8 | COC(=O)N1CC(=O)c2c([nH]c(-c3ccncc3)c2Nc2ccccc2)C1 [Example 18, Methyl 4-oxo-3-(phenylamino)-2-(pyridin-4-yl)-1,4,5,7-tetrahydro-6H-pyrrolo[2,3-c]pyridine-6-carboxylate] | 6 nM
9 | O=C1C[S+]([O-])Cc2[nH]c(-c3ccncc3)c(Nc3ccccc3)c21 (stereo not shown) [Example 20, 3-(phenylamino)-2-(pyridin-4-yl)-1,7-dihydrothiopyrano[3,4-b]pyrrol-4(5H)-one 6-oxide] | 152 nM
10 | CCNC(=O)N1CC(=O)c2c([nH]c(-c3ccncc3)c2Nc2ccccc2)C1 [Example 10, N-Ethyl-4-oxo-3-(phenylamino)-2-(pyridin-4-yl)-1,4,5,7-tetrahydro-6H-pyrrolo[2,3-c]pyridine-6-carboxamide] | 6 nM
11 | CC(=O)Nc1cc(-c2[nH]c3c(c2Nc2ccccc2)C(=O)CN(S(=O)(=O)C2CC2)C3)ccn1 [Example 172] | 5 nM
12 | CSCC(=O)Nc1cc(-c2[nH]c3c(c2Nc2ccccc2)C(=O)COC3)ccn1 [Example 46, 2-(Methylsulfanyl)-N-{4-[4-oxo-3-(phenylamino)-1,4,5,7-tetrahydropyrano[3,4-b]pyrrol-2-yl]pyridin-2-yl}acetamide] | 93 nM
13 | COc1ccc(C(=O)Nc2cc(-c3[nH]c4c(c3Nc3ccccc3)C(=O)CN(C(=O)SC(C)(C)C)C4)ccn2)cc1F [Example 305, S-tert-butyl 3-anilino-2-{2-[(3-fluoro-4-methoxybenzoyl)amino]pyridin-4-yl}-4-oxo-1,4,5,7-tetrahydro-6H-pyrrolo[2,3-c]pyridine-6-carbothioate] | 233 nM
14 | O=C1CSCc2[nH]c(-c3ccncc3Cl)c(Nc3ccccc3)c21 [Example 38, 2-(3-Chloropyridin-4-yl)-3-(phenylamino)-1,7-dihydrothiopyrano[3,4-b]pyrrol-4(5H)-one] | 40 nM
15 | CC(=O)Nc1cc(-c2[nH]c3c(c2Nc2ccccc2)C(=O)CN(S(=O)(=O)N(C)C)C3)ccn1 [Example 254, N-4-[6(Dimethylsulfamoyl)-4-oxo-3-(phenylamino)-4,5,6,7-tetrahydro-1H-pyrrolo[2,3-c]pyridin-2-yl]pyridin-2-ylacetamide] | 4 nM
16 | CC(C)(C)SC(=O)N1CC(=O)c2c([nH]c(-c3ccncc3OCC(F)F)c2Nc2ccccc2)C1 [Example 304, S-tert-Butyl 3-anilino-2-[3-(2,2-difluoroethoxy)pyridin-4-yl]-4-oxo-1,4,5,7-tetrahydro-6H-pyrrolo[2,3c]pyridine-6-carbothioate] | 233 nM

Row | Compound | IC50
17 | COc1ccc(C(=O)Nc2cc(-c3[nH]c4c(c3Nc3ccccc3)C(=O)CN(C(=O)N3C[C@@H](C)O[C@@H](C)C3)C4)ccn2)cc1F [Example 292, N-4-[6-[(2R,6S)-2,6-Dimethylmorpholin-4-yl]carbonyl-4-oxo-3-(phenylamino)-4,5,6,7-tetrahydro-1H-pyrrolo[2,3-c]pyridin-2-yl]pyridin-2-yl-3-fluoro-4-methoxybenzamide] | 214 nM
18 | CC(=O)Nc1cc(-c2[nH]c3c(c2Nc2ccccc2)C(=O)CN(C(=O)CC(C)(C)C)C3)ccn1 [Example 174, N-{4-[3-Anilino-6-(3,3-dimethylbutanoyl)-4-oxo-4,5,6,7-tetrahydro-1H-pyrrolo[2,3-c]pyridin-2-yl]pyridin-2-yl}acetamide] | 8 nM
19 | CCC(=O)N1CC(=O)c2c([nH]c(-c3ccnc(NC(C)=O)c3)c2Nc2ccccc2)C1 [Example 180, N-[4-(3-Anilino-4-oxo-6-propionyl-4,5,6,7-tetrahydro-1H-pyrrolo[2,3-c]pyridin-2-yl)pyridin-2-yl]acetamide] | 5 nM
20 | COCCOc1cnccc1-c1[nH]c2c(c1Nc1ccccc1)C(=O)CN(C(=O)OC(C)(C)C)C2 [Example 222, tert-Butyl 3-anilino-2-[3-(2-methoxyethoxy)pyridin-4-yl]-4-oxo-1,4,5,7-tetrahydro-6H-pyrrolo[2,3-c]pyridine-6-carboxylate] | 9 nM
21 | COc1cc(C(=O)Nc2cc(-c3[nH]c4c(c3Nc3ccccc3)C(=O)CNC4)ccn2)ccc1F [Example 257] | 35 nM
22 | O=C1CNCc2[nH]c(-c3ccnc(NC(=O)C4(F)CC4)c3)c(Nc3ccccc3)c21 [Example 132, N-[4-(3-anilino-4-oxo-4,5,6,7-tetrahydro-1H-pyrrolo[2,3-c]pyridin-2-yl)pyridin-2-yl]-1-fluorocyclopropanecarboxamide] | 299 nM
23 | CC(C)(C)OC(=O)N1CC(=O)c2c([nH]c(-c3ccncc3)c2Nc2ccccc2)C1 [Example 3, tert-Butyl 4-oxo-3-(phenylamino)-2-(pyridin-4-yl)-1,4,5,7-tetrahydro-6H-pyrrolo[2,3-c]pyridine-6-carboxylate] | 10 nM
24 | C[S+]([O-])CC(=O)Nc1cc(-c2[nH]c3c(c2Nc2ccccc2)C(=O)COC3)ccn1 (stereo not shown) [Example 47, 2-(Methylsulfinyl)-N-{4-[4-oxo-3-(phenylamino)-1,4,5,7-tetrahydropyrano[3,4-b]pyrrol-2-yl]pyridin-2-yl}acetamide] | 341 nM
25 | CC(C)OC(=O)N1CC(=O)c2c([nH]c(-c3ccnc(NC(=O)C(C)(C)F)c3)c2Nc2ccccc2)C1 [Example 155, Isopropyl 3-anilino-2-{2-[(2-fluoro-2-methylpropanoyl)amino]pyridin-4-yl}-4-oxo-1,4,5,7-tetrahydro-6H-pyrrolo[2,3-c]pyridine-6-carboxylate] | 60 nM
26 | CC(=O)Nc1cc(-c2[nH]c3c(c2Nc2ccccc2)C(=O)CN(C(=O)C2CCN(C)CC2)C3)ccn1 [Example 191, N-(4-{3-Anilino-6-[(1-methylpiperidin-4-yl)carbonyl]-4-oxo-4,5,6,7-tetrahydro-1H-pyrrolo[2,3-c]pyridin-2-yl}pyridin-2-yl)acetamide] | 143 nM
27 | O=C1CN(S(=O)(=O)c2cccnc2)Cc2[nH]c(-c3ccncc3)c(Nc3ccccc3)c21 [Example 75, 3-(phenylamino)-2-(pyridin-4-yl)-6-(pyridin-3-ylsulfonyl)-1,5,6,7-tetrahydro-4H-pyrrolo[2,3-c]pyridin-4-one] | 6 nM
28 | CCN(CC)C(=O)N1CC(=O)c2c([nH]c(-c3ccnc(NC(=O)[C@@H]4C[C@@H]4F)c3)c2Nc2ccccc2)C1 [Example 217, N,N-Diethyl-2-[2-([(1S,2S)-2-fluorocyclopropyl]carbonylamino)pyridin-4-yl]-4-oxo-3-(phenylamino)-1,4,5,7-tetrahydro-6H-pyrrolo[2,3-c]pyridine-6-carboxamide] | 4 nM
29 | CC(=O)Nc1cc(-c2[nH]c3c(c2Nc2ccccc2)C(=O)CN(C(=O)c2cn(C)cn2)C3)ccn1 [Example 118, N-(4-{6-[(1-Methyl-1H-imidazol-4-yl)carbonyl]-4-oxo-3-(phenylamino)-4,5,6,7-tetrahydro-1H-pyrrolo[2,3-c]pyridin-2-yl}pyridin-2-yl)acetamide] | 149 nM
30 | CC(C)(C)NC(=O)N1CC(=O)c2c([nH]c(-c3ccncc3)c2Nc2ccccc2)C1 [Example 85, N-tert-Butyl-4-oxo-3-(phenylamino)-2-(pyridin-4-yl)-1,4,5,7-tetrahydro-6H-pyrrolo[2,3-c]pyridine-6-carboxamide] | 13 nM
31 | Nc1cc(-c2[nH]c3c(c2Nc2ccccc2)C(=O)CNC3)ccn1 [Example 21, 2-(2-Aminopyridin-4-yl)-3-(phenylamino)-1,5,6,7-tetrahydro-4H-pyrrolo[2,3-c]pyridin-4-one] | 794 nM
